Experimental data taken from publication doi:10.1101/2020.04.16.044321v1 (biorxiv, 2020).

Target: hemopexin (Homo sapiens, UniProt P02790)
Assay: biochemical

Sequence of hemopexin (P02790 24-462): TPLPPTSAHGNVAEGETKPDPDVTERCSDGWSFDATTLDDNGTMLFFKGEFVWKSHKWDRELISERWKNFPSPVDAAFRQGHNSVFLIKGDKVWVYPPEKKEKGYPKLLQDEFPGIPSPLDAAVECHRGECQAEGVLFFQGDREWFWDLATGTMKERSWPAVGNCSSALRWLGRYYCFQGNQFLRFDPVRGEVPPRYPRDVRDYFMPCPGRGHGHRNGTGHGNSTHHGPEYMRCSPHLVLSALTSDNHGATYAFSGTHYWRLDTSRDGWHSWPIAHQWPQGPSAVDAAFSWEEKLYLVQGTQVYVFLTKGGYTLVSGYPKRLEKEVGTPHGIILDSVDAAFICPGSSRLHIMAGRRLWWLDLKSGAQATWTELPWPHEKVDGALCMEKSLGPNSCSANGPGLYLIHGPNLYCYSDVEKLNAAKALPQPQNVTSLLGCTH

A Kd of 0.32 ± 0.04 nM was found for `C=CC1=C(C)C2=Cc3c(C=C)c(C)c4[n]3[Fe+][n]3c(c(C)c(CCC(=O)O)c3=CC3=NC(=C4)C(C)=C3CCC(=O)O)=CC1=N2` [heme] in this work.
